The values below come from US20240018147A1, “SALT OF COMPOUND FOR DEGRADING BTK, CRYSTAL FORM THEREOF, AND USE THEREOF IN MEDICINE” (HAISCO PHARMACEUTICALS PTE. LTD., priority 2020, published 2024).

Values after ≈ are worked out from the molar mass of the structure shown.

Series [1] can be described thus: Pharmacokinetic test of dogs. The series is classed as in vivo. The following applies: Beagle dogs; for Having bioavailability or not / AUC(0-t): i.g. (10 mg/kg); for AUC(0-t): male, dog, po, plasma. The method, then:
Experimental objective: in this experiment, a single dose of each test compound was administered to Beagle dogs intravenously and intragastrically, the concentrations of the test compounds in plasma of dogs were measured, and the pharmacokinetic characteristics and bioavailability of the test compounds in dogs were evaluated.
Experimental animal: male Beagle dogs (about 8-11 kg, […], 6 dogs/compound), purchased from Beijing Marshall Biotechnology Co. Ltd.
The animals were fasted but with water available for 14 to 18 hours one day before administration, and were fed 4 hours after administration.
Sampling: before and after administration, 1.0 ml of blood was taken from jugular veins, and placed in an EDTAK2 centrifuge tube. Centrifugation was carried out at 5000 rpm at 4° C. for 10 m, and the plasma was collected.
Time points for plasma collection in G1& G2 groups: 0, 5 min, 15 min, 30 mi 1 h, 2 h, 4 h, 6 h, 8 h, 10 h, […] and 24 h.
Before analysis and detection, all samples were stored at −80° C. The samples were detected by using HPLC-MS/MS.

The nature of series [2]: Solubility in water at 25° C. It is filed as physicochemical. The method, then: 7. Solubility Data in Water at 25° C.
A short description of series [3]: Chemical stability at high temperature (40° C.) and high humidity (RH 92.5%), purity by HPLC. The series is classed as physicochemical. The note with it: for Purity by HPLC, 0 day: 0 day (initial); for chemical stability: 40° C. and RH 92.5%, purity by HPLC, conclusion in words; for Purity by HPLC, 92.5% RH 30 days: high humidity 92.5% RH; for Purity by HPLC, 40° C. 30 days: high temperature 40° C. The protocol:
Samples were taken and tested at high temperature (40° C.) and under high humidity (RH 92.5%) respectively. The purity (represented by a percentage) was detected by HPLC.
With regard to methods for preparing test solutions and conditions for detecting purity by HPLC, reference was made to Tables 13, 14 and 15.

Series [4] can be described thus: Stability of crystal form of compound 1 and compound 3 (XRD). The series is classed as physicochemical. The note with it: conclusion in words. From the text: 6.1. Stability of crystal form of compound 1 and compound 3.
A short description of series [5]: Crystal slurrying competition experiment of crystal forms. The series is classed as physicochemical. The following applies: room temperature; for relative stability of crystal forms from competition experiments: conclusion in words. The method, then:
6.2. Competitive experiments of crystal forms I, II and III of compound 1 were performed at room temperature to investigate the stability of the crystal forms in isopropyl acetate and a water/acetonitrile (v/v=1:1) solvent, and Competitive experiments of the crystal forms I and II of compound 3 were performed at room temperature to investigate the stability of the crystal forms in an ethanol/water (v/v=1:1) solvent and an acetone/water (v/v=1:1) solvent.

Setting [6] is: listed as Amorphous form of compound 1.
Where [7] appears, read: listed as Crystal form III of compound 1.

For the molecule `Nc1ncnc2c1c(-c1ccc(Oc3ccccc3)cc1)nn2C1CCN(C2CN(C3CN(c4ccc5c(c4)C(=O)N(C4CCC(=O)NC4=O)C5=O)C3)C2)CC1.O=C(O)CC(O)(CC(=O)O)C(=O)O` (stereo not shown) [Compound 5, 5-[3-[3-[4-[4-amino-3-(4-phenoxyphenyl)pyrazolo[3,4-d]pyrimidin-1-yl]-1-piperidyl]azetidin-1-yl]azetidin-1-yl]-2-(2,6-dioxo-3-piperidyl)isoindoline-1,3-dione citrate], in series [1], the “Having bioavailability or not” value is listed as “Yes”, the “increase of oral exposure amount as compared with compound 1” value (“increase of oral exposure amount” for short) is recorded as “more than 2 times” and the area under the curve AUC(0-t) was determined as 59.5 ± 21 ng·h/mL. In addition, in series [2], the “improvement of solubility as compared with compound 1” value is given as “more than 15 times” and the solubility came out at 166 µg/mL. For the same molecule, in series [3], the “Purity by HPLC, 0 day” value came to 98.44%; the chemical stability result is recorded as “relatively good chemical stability”; the “Purity by HPLC, 92.5% RH 30 days” value is given as 98.05%.
As for `Nc1ncnc2c1c(-c1ccc(Oc3ccccc3)cc1)nn2C1CCN(C2CN(C3CN(c4ccc5c(c4)C(=O)N(C4CCC(=O)NC4=O)C5=O)C3)C2)CC1` (stereo not shown) [amorphous form of compound 1, 5-[3-[3-[4-[4-amino-3-(4-phenoxyphenyl)pyrazolo[3,4-d]pyrimidin-1-yl]-1-piperidyl]azetidin-1-yl]azetidin-1-yl]-2-(2,6-dioxo-3-piperidyl)isoindoline-1,3-dione], in series [1], the “Having bioavailability or not” value is given as “Yes” and the AUC(0-t) came to 26.9 ± 3.3 ng·h/mL. Also, the solubility in series [2] is 9 µg/mL (≈ 12 µM). In series [3] (setting [6]), the “Purity by HPLC, 0 day” value stood at 98.88%; the “Purity by HPLC, 92.5% RH 30 days” value is on record as 98.82%; the “Purity by HPLC, 40° C. 30 days” value was found to be 98.85%. In addition, the chemical stability entry in series [3] is “relatively good chemical stability”. Also, the “stability of crystal form” value in series [4] is reported as “relatively good stability”.
Take `Nc1ncnc2c1c(-c1ccc(Oc3ccccc3)cc1)nn2C1CCN(C2CN(C3CN(c4ccc5c(c4)C(=O)N(C4CCC(=O)NC4=O)C5=O)C3)C2)CC1` (stereo not shown) [5-[3-[3-[4-[4-amino-3-(4-phenoxyphenyl)pyrazolo[3,4-d]pyrimidin-1-yl]-1-piperidyl]azetidin-1-yl]azetidin-1-yl]-2-(2,6-dioxo-3-piperidyl)isoindoline-1,3-dione]: the “Experimental XRD result after crystal slurrying competition” value in series [5] (isopropyl acetate, 2 days) was “Crystal form III”; in series [5] (water/acetonitrile (v/v = 1:1), 2 days), “Crystal form III”.
Take `Nc1ncnc2c1c(-c1ccc(Oc3ccccc3)cc1)nn2C1CCN(C2CN(C3CN(c4ccc5c(c4)C(=O)N(C4CCC(=O)NC4=O)C5=O)C3)C2)CC1` (stereo not shown) [crystal form III of compound 1, 5-[3-[3-[4-[4-amino-3-(4-phenoxyphenyl)pyrazolo[3,4-d]pyrimidin-1-yl]-1-piperidyl]azetidin-1-yl]azetidin-1-yl]-2-(2,6-dioxo-3-piperidyl)isoindoline-1,3-dione]: the “relative stability of crystal forms from competition experiments” value in series [5] is listed as “most stable crystal form”. Also, in series [3] (setting [7]), the “Purity by HPLC, 0 day” value was found to be 99.41%; the “Purity by HPLC, 92.5% RH 30 days” value was 99.30%; the “Purity by HPLC, 40° C. 30 days” value was 99.28%.
`Nc1ncnc2c1c(-c1ccc(Oc3ccccc3)cc1)nn2C1CCN(C2CN(C3CN(c4ccc5c(c4)C(=O)N(C4CCC(=O)NC4=O)C5=O)C3)C2)CC1.O=C(O)C[C@H](O)C(=O)O` [Compound 4, 5-[3-[3-[4-[4-amino-3-(4-phenoxyphenyl)pyrazolo[3,4-d]pyrimidin-1-yl]-1-piperidyl]azetidin-1-yl]azetidin-1-yl]-2-(2,6-dioxo-3-piperidyl)isoindoline-1,3-dione L-malate]: in series [2], the “improvement of solubility as compared with compound 1” value is on record as “more than 15 times” and the solubility was determined as 158 µg/mL.
With `Nc1ncnc2c1c(-c1ccc(Oc3ccccc3)cc1)nn2C1CCN(C2CN(C3CN(c4ccc5c(c4)C(=O)N(C4CCC(=O)NC4=O)C5=O)C3)C2)CC1.O=C(O)/C=C\C(=O)O.O=C(O)/C=C\C(=O)O` (stereo not shown) [crystal form I of compound 3, 5-[3-[3-[4-[4-amino-3-(4-phenoxyphenyl)pyrazolo[3,4-d]pyrimidin-1-yl]-1-piperidyl]azetidin-1-yl]azetidin-1-yl]-2-(2,6-dioxo-3-piperidyl)isoindoline-1,3-dione dimaleate], the “relative stability of crystal forms from competition experiments” value in series [5] is on record as “most stable crystal form”. Besides, in series [1], the “Having bioavailability or not” value was “Yes”, the “increase of oral exposure amount” value is recorded as “more than 2 times” and the AUC(0-t) stood at 75.1 ± 50 ng·h/mL. In addition, in series [2], the “improvement of solubility as compared with compound 1” value is given as “more than 15 times” and the solubility was found to be 172 µg/mL. Also, in series [3], the “Purity by HPLC, 0 day” value was 99.85%; the chemical stability result was “relatively good chemical stability”; the “Purity by HPLC, 92.5% RH 30 days” value stood at 99.76%; the “Purity by HPLC, 40° C. 30 days” value was found to be 99.74%.
For `Nc1ncnc2c1c(-c1ccc(Oc3ccccc3)cc1)nn2C1CCN(C2CN(C3CN(c4ccc5c(c4)C(=O)N(C4CCC(=O)NC4=O)C5=O)C3)C2)CC1.O=C(O)/C=C\C(=O)O.O=C(O)/C=C\C(=O)O` (stereo not shown), the “Experimental XRD result after crystal slurrying competition” value is recorded as “Crystal form I” in series [5] (acetone/water (v/v = 1:1), 3 days) and “Crystal form I” in series [5] (ethanol/water (v/v = 1:1), 3 days).
On to `Nc1ncnc2c1c(-c1ccc(Oc3ccccc3)cc1)nn2C1CCN(C2CN(C3CN(c4ccc5c(c4)C(=O)N(C4CCC(=O)NC4=O)C5=O)C3)C2)CC1.O=C(O)C(O)C(O)C(=O)O` [Compound 7, 5-[3-[3-[4-[4-amino-3-(4-phenoxyphenyl)pyrazolo[3,4-d]pyrimidin-1-yl]-1-piperidyl]azetidin-1-yl]azetidin-1-yl]-2-(2,6-dioxo-3-piperidyl)isoindoline-1,3-dione L-tartrate], for which, in series [1], the “Having bioavailability or not” value is given as “Yes”, the “increase of oral exposure amount” value was “more than 2 times” and the AUC(0-t) was 95.5 ± 65 ng·h/mL. Besides, in series [2], the “improvement of solubility as compared with compound 1” value is on record as “more than 15 times” and the solubility is 143 µg/mL.
As for `Nc1ncnc2c1c(-c1ccc(Oc3ccccc3)cc1)nn2C1CCN(C2CN(C3CN(c4ccc5c(c4)C(=O)N(C4CCC(=O)NC4=O)C5=O)C3)C2)CC1.O=C(O)/C=C\C(=O)O.O=C(O)/C=C\C(=O)O` (stereo not shown) [amorphous form of compound 3, 5-[3-[3-[4-[4-amino-3-(4-phenoxyphenyl)pyrazolo[3,4-d]pyrimidin-1-yl]-1-piperidyl]azetidin-1-yl]azetidin-1-yl]-2-(2,6-dioxo-3-piperidyl)isoindoline-1,3-dione dimaleate], the “stability of crystal form” value in series [4] is “relatively good stability”.
In the case of `Nc1ncnc2c1c(-c1ccc(Oc3ccccc3)cc1)nn2C1CCN(C2CN(C3CN(c4ccc5c(c4)C(=O)N(C4CCC(=O)NC4=O)C5=O)C3)C2)CC1.O=C(O)C(=O)O` (stereo not shown) [Compound 9, 5-[3-[3-[4-[4-amino-3-(4-phenoxyphenyl)pyrazolo[3,4-d]pyrimidin-1-yl]-1-piperidyl]azetidin-1-yl]azetidin-1-yl]-2-(2,6-dioxo-3-piperidyl)isoindoline-1,3-dione oxalate], in series [1], the “Having bioavailability or not” value was “Yes”, the “increase of oral exposure amount” value is “more than 2 times” and the AUC(0-t) came to 79.4 ± 20 ng·h/mL. In series [2], the “improvement of solubility as compared with compound 1” value is given as “more than 15 times” and the solubility worked out at 346 µg/mL. Also, in series [3], the “Purity by HPLC, 0 day” value came out at 98.67%; the chemical stability result was “relatively good chemical stability”; the “Purity by HPLC, 92.5% RH 30 days” value amounted to 98.28%.
Regarding `Nc1ncnc2c1c(-c1ccc(Oc3ccccc3)cc1)nn2C1CCN(C2CN(C3CN(c4ccc5c(c4)C(=O)N(C4CCC(=O)NC4=O)C5=O)C3)C2)CC1` (stereo not shown) [Compound 1, 5-[3-[3-[4-[4-amino-3-(4-phenoxyphenyl)pyrazolo[3,4-d]pyrimidin-1-yl]-1-piperidyl]azetidin-1-yl]azetidin-1-yl]-2-(2,6-dioxo-3-piperidyl)isoindoline-1,3-dione], the “oral bioavailability in dogs” value in series [1] (intragastric vs intravenous, conclusion in words) is “a certain level of oral bioavailability”. In addition, in series [2] (conclusion in words), the solubility in water result is “a certain level of solubility”.
